In publication PMC13058460, “PET-MRI biomarkers reveal efficacy of a novel NLRP3 inhibitor in Parkinson’s disease models” (Brain, 2025):
Where two headings read alike, the source gives them in different places.

Tests used:
Human plasma stability = details: % remaining at 2 hours
Protocol: (§5) LM – Liver microsome (half-life in minutes)
PPB – Plasma Protein Binding
(§6) PS – Plasma Stability (% remaining at 2 hours)

CYP1A2 = target: T1, CYP1A2 (Homo sapiens, UniProt P05177); test: CYP1A2 inhibition
T1 sequence (P05177 1-516): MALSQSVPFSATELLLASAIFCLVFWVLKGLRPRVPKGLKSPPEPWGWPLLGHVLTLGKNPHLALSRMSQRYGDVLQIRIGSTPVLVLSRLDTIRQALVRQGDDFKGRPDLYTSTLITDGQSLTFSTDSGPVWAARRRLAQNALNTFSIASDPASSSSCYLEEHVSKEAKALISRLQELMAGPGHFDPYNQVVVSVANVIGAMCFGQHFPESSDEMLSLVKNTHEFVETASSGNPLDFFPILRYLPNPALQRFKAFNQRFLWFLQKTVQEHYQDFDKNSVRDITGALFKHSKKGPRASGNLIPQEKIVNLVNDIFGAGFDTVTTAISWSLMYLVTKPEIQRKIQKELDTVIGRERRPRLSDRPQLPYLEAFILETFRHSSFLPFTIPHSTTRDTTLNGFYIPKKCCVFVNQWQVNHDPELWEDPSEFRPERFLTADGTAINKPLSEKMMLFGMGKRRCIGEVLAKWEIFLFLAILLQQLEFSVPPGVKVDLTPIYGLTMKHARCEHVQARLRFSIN

CYP2C9 = CYP2C9 (Homo sapiens, UniProt P11712); test: CYP2C9 inhibition
Protocol: as §5
PPB – Plasma Protein Binding
as §6

CYP3A4 = CYP3A4 (Homo sapiens, UniProt P08684); test: CYP3A4 inhibition
Protocol: as §5
PPB – Plasma Protein Binding
as §6

[1] = Human liver microsome stability; details: liver microsomes
Protocol: as §5
PPB – Plasma Protein Binding
as §6

[2] = Single-dose pharmacokinetics (plasma and brain) in C57BL/6J mice; format: in vivo, mouse; details: for Tolerability in single-dose pharmacokinetic studies: fasted male C57BL/6J mice, i.v. 4 mg/kg or oral 20 mg/kg; for bioavailability / Oral half-life: plasma; for bioavailability: oral, p.o. 20 mg/kg vs i.v. 4 mg/kg; for Oral half-life: p.o. 20 mg/kg
[3] = Mouse liver microsome stability; details: liver microsomes
Protocol: as §5
PPB – Plasma Protein Binding
as §6

Mouse plasma stability = details: % remaining at 2 hours
Protocol: as §5
PPB – Plasma Protein Binding
as §6

[4] = target: hERG (human ether-a-go-go K+ ion channel) (Homo sapiens, UniProt Q12809); test: hERG QPatch assay
Protocol: as §5
PPB – Plasma Protein Binding
as §6

[5] = Human plasma protein binding
Protocol: as §5
PPB – Plasma Protein Binding
as §6

[6] = Mouse plasma protein binding
Protocol: as §5
PPB – Plasma Protein Binding
as §6

CYP2D6 = CYP2D6 (Homo sapiens, UniProt P10635); test: CYP2D6 inhibition
Protocol: as §5
PPB – Plasma Protein Binding
as §6

AIM2 inflammasome = target: T2, AIM2 inflammasome (Mus musculus, UniProt Q91VJ1); test: AIM2 inflammasome activation by poly(dA:dT) in bone marrow macrophages; format: cell-based; details: C57BL/6J bone marrow macrophages stimulated with poly(dA:dT); n=2
T2 construct: marrow cells were isolated from C57BL/6J mice and cultured macrophages stimulated with S; endogenous in cells; host or cells: bone-marrow-derived macrophages from C57BL/6J mice
T2 sequence (Q91VJ1 1-354): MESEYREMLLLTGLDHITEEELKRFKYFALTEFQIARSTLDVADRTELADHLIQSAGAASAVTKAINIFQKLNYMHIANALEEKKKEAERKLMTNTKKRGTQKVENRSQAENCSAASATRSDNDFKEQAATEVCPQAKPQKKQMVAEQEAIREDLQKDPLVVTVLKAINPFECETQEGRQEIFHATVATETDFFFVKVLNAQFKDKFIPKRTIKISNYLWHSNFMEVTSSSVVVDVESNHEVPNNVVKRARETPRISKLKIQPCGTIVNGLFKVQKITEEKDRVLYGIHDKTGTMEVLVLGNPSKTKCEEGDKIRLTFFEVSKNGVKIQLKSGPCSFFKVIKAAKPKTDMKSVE
Text: (§1) marrow cells were isolated from C57BL/6J mice and cultured macrophages stimulated with S.
(§2) typhimurium (S.typ) and poly(dA:dT) to activate [A] NLRC4 and [B] AIM2 inflammasomes. No […]

NLRC4 inflammasome = target: T3, NLRC4 inflammasome (Mus musculus, UniProt Q3UP24); test: NLRC4 inflammasome activation by S. typhimurium in bone marrow macrophages; format: cell-based; details: C57BL/6J bone marrow macrophages stimulated with S. typhimurium; n=2
T3 construct: marrow cells were isolated from C57BL/6J mice and cultured macrophages stimulated with S; endogenous in cells; host or cells: bone-marrow-derived macrophages from C57BL/6J mice
Text: as §1, §2

[7] = test system: 95 targets (Eurofins Cerep panel); test: Off-target screen, Eurofins Cerep panel (binding, enzyme and uptake assays); details: 10uM
Protocol: (10uM) was screened for inhibition or activation activities at 95 targets (Eurofins Cerep panel) in
binding and enzyme and uptake assays. […]

[8] = test system: 6-OHDA Parkinson's mouse model; test: 6-OHDA Parkinson's mouse model, oral gavage dose response (rotations, striatal dopamine); details: for ED50: Mus musculus
Protocol: 6-hydroxydopamine (6-OHDA; Sigma) was dissolved in saline with 0.2% ascorbic acid to a final injected dose of 12 μg as previously described.[18]
Mice received analgesics and fluids and were placed on a heat pad until recovery.
D-amphetamine (2 mg/kg) was administered either 17 or 21 days post-6-OHDA; net ipsilateral turns over 10 min were recorded.
Striatal dopamine and metabolites were quantified by LC-MS/MS as previously described.[36]
(B) Amphetamine-induced ipsilateral rotations at Day 21, and (C–E) levels of striatal dopamine, 3,4-dihydroxyphenylacetic acid (DOPAC) and homovanillic acid (HVA) 28 days following saline or 6-OHDA injection. […] Data in B–E are presented as box-whisker plot with median (line), 25th to 75th percentiles (box) and full range (whiskers) shown. **P < 0.01, ***P < 0.001 by one-way ANOVA (two-tailed), and Dunnett’s post-test comparing to untreated 6-OHDA group.
administration to fasted 8–10-week-old C57BL/6J male mice was performed using an adapted method as previously described (30). At the relevant time point following dosing, blood samples were collected for plasma and the brain perfused with PBS for 5 min; CSF was also collected from separate groups of mice. Brain homogenates were prepared from dissected brains by homogenizing total brain (0.5 g) with four volumes (2 mL) of deionized water.
C57BL/6J mice were anaesthetized using ketamine hydrochloride (100 mg/kg) and xylazine (10 mg/kg), and were placed into a stereotactic frame with nose and ear bars specially adapted for mice. A digital stereotaxic instrument was used with a 5 μL Hamilton syringe to deliver either a sterile saline solution (0.9% sodium chloride) containing 0.2% ascorbic acid, 6-hydroxydopamine (6-OHDA; 12 μg) dissolved in saline containing 0.2% ascorbic acid, α-synuclein pre-formed fibrils (PFF-Syn; 8 μg in PBS), or PBS alone, into the right dorsal striatum of mice at the following stereotaxic coordinates relative to bregma (mm): -2.0 medial-lateral, + 0.5 anterior-posterior, -3.0 mm dorsal-ventral below the pial surface. After drilling a 1 mm burr-hole in the skull, a 2 μl volume of solution was infused at the target site at the rate of 0.5 μl per minute. The needle was held in place for at least 5 minutes after injection to minimize retrograde flow along the needle tract. Mice were given a subcutaneous injection of sterile Ringer ’s solution to help facilitate recovery and carprofen (5 mg/kg) for post-operative pain relief and were placed on a heat-pad until complete recovery from anaesthesia.
8-10 week-old C57BL/6J male mice were housed under a 12-hr light cycle in a SPF climate-controlled facility with food and water provided ad libitum for two weeks prior to study initiation.
mg/kg), or by drinking water (0.3mg/ml), with studies performed at UQ or by CROs. […]

healthy subjects = test system: healthy subjects; set-up: method as in NCT04015076; details: randomized, double-blinded, placebo-controlled, single and multiple ascending dose, ref NCT04015076; cited from earlier work
PFF-Syn mouse model = test: PFF-Syn Parkinson's disease mouse model, preventative and therapeutic dosing in drinking water; format: in vivo
Protocol: Recombinant human α-synuclein (rPeptide) was incubated in PBS at 37°C, 400 rpm, for 7 days with daily sonication cycle. Fibril formation was validated by transmission electron microscopy (TEM) and Thioflavin T fluorescence.[34],[35]
(§3) The Supplementary material contains detailed treatment regimens.
(§4) Blood was collected in ethylenediaminetetraacetic acid (EDTA) tubes, plasma aliquoted and stored at −80°C. IL-1β was quantified by ELISA (R&D Systems). Extended methods are in the Supplementary material.
Mice traversed a 0.5 cm × 1 m beam apparatus; latency to cross was measured at 4, 6, 8 and 10 months post-PFF-Syn.
Accelerated rotarod (5–40 rpm over 5 min) assessed latency to fall at 4, 6, 8 and 10 months post-PFF-Syn as previously described.[17],[18]
At 11 months post-PFF injection, mice were scanned with ^18F-DPA-714 PET/MRI. Regions of interest (ROIs) were anatomically defined in striatum using MRI guidance. SUVRs and T1 relaxation times were calculated. Extended imaging parameters are in the Supplementary material.
(A) Schematic of the PFF-Syn study [created in BioRender. […] (B–E) Rotarod and (F–I) balance-beam testing of mice at 4, 6, 8 and 10 months post PFF-Syn or saline injection (n = 8–10/group). […] (K) Time-activity curves for ^18F-DPA-714 generated from dynamic imaging and presented as standard uptake value ratio (SUV-ratio) from ipsilateral to contralateral hemispheres (n = 4–8/group). (L) Sixty minute SUV-ratio time point for data in L. (M) Representative autoradiography images for ^18F-DPA-714 from brain slices taken following PET imaging. (N) Quantitation of ^18F-DPA-714 autoradiography, and blockade of signal with PK11195. (O) Representative immunohistochemistry for microglial marker ionized calcium-binding adaptor molecule 1 (Iba1; green) from brain slices taken following PET imaging; cell nuclei 4′,6-diamidino-2-phenylindole (DAPI; blue). Square dotted line box in M represents approximate region imaged; magnification ×40, scale bars = 20 μm. (P) Ipsilateral striatal dopamine quantitation, and (Q) plasma interleukin (IL)-1β concentrations in mice after completion of PET imaging experiments (n = 4–8/group).

[9] = test system: 6-OHDA Parkinson's mouse model; test: 6-OHDA mouse model, PET/MRI imaging study with MCC7840 in drinking water; format: in vivo; details: 0.3 mg/ml in drinking water
Protocol: as §3, §4
On Days 24–28 post-surgery, mice underwent PET/MRI with ^18F-DPA-714 (Day 24), ^18F-FBCTT (Day 26) and ^18F-FDOPA (Day 28) to assess microglial activation, dopamine transporter function and presynaptic dopamine synthesis, respectively. Standardized uptake value ratios (SUVRs) were calculated as ipsilateral/contralateral striatum ratios. Detailed acquisition and analysis methods are provided in the Supplementary material.
The microglial IC50 and IC90 values are shown with dotted lines. (B) Schematic of the 6-OHDA imaging study [created in BioRender. […] (C) Amphetamine-induced ipsilateral rotations at Day 17. (D–F) Structures of ^18F-DPA-714, ^18F-FBCTT and ^18F-FDOPA. […] (H) Time-activity curves for ^18F-DPA-714 generated from dynamic imaging and presented as standard uptake value ratio from ipsilateral to contralateral hemispheres (standardized uptake value ratio, SUV-ratios). The 60 min imaging time point is shown on the right. (I) Representative brain PET/MRI images and (J) quantitative SUV-ratios for ^18F-FBCTT. […] (K) Representative brain PET/MRI images and (L) quantitative SUV-ratios for ^18F-FDOPA. […] (M–O) MRI blood–brain barrier leakage measurement of gadolinium T1 relaxation time values in ipsilateral (M) and contralateral (N) hemispheres and expressed as a ratio (O). (P) Plasma IL-1β concentrations in mice at Day 28. […] SUV-BW = standard uptake value corrected for body weight.
To perform PET imaging, the same mouse was intravenously administered three radiotracers at sequential time points: ^18F-DPA-714 at Day 24 to label TSPO and neuroinflammation (Fig. 5D), ^18F-FBCTT at Day 26 to label dopamine transporter (DAT) availability (Fig. 5E)[42] and ^18F-FDOPA at Day 28 to label dopamine uptake (Fig. 5F),[43] following 6-OHDA or saline injection. At each time point, mice were anaesthetized and imaged using PET/MRI to visualize radiotracer uptake in the brains of living mice (Fig. 5B).
DOPA and F-rac-DOPA. Chiral HPLC method: Daicel Crownpak CR+ (4.0 × 150mm x 5µm, Part No. 27714), Flow rate = 0.8ml/min with 100% (perchloric acid pH 2.0).
PET/MRI imaging in the 6-OHDA model
Twenty-four days post-surgery, mice from each experimental group were injected with a radiotracer every second day in a group of 3-4 mice per imaging week. Three different radiotracers were used on three different days. [18F]DPA-714 (24th day post-surgery) was used to target the translocator protein, TSPO, overexpressed in activated microglia during neuroinflammation. […]

[10] = Mouse % PPB, plasma protein binding
[11] = 6, 8 and 10 months, both preventative and therapeutic groups

CYP2D6, sequence (P10635 whole entry): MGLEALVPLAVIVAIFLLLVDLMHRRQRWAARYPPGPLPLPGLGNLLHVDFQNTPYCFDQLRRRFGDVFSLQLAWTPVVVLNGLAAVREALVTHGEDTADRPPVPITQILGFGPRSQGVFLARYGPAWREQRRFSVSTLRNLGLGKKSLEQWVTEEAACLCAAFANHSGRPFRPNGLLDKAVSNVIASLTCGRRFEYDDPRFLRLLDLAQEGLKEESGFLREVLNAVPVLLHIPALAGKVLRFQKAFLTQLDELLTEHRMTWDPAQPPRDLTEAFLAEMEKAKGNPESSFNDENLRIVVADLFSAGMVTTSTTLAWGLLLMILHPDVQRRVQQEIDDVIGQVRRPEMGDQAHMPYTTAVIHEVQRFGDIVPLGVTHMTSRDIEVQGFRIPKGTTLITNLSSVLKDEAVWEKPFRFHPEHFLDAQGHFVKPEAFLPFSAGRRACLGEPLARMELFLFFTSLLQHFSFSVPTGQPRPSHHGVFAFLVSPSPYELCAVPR
CYP2C9, sequence (P11712 whole entry): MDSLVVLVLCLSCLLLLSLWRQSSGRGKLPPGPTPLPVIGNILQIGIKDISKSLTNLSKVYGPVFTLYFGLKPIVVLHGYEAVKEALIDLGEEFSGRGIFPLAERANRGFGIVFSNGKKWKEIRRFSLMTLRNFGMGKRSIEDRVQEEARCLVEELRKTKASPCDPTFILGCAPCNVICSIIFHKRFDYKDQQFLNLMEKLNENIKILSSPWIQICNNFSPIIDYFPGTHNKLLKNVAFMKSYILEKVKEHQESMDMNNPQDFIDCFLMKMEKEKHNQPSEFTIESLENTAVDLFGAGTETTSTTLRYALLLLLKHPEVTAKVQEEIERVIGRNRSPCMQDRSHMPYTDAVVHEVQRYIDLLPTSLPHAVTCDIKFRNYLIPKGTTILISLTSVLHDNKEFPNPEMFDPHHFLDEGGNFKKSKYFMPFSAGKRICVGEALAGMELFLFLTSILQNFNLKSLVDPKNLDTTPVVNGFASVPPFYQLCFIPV
CYP3A4, sequence (P08684 whole entry): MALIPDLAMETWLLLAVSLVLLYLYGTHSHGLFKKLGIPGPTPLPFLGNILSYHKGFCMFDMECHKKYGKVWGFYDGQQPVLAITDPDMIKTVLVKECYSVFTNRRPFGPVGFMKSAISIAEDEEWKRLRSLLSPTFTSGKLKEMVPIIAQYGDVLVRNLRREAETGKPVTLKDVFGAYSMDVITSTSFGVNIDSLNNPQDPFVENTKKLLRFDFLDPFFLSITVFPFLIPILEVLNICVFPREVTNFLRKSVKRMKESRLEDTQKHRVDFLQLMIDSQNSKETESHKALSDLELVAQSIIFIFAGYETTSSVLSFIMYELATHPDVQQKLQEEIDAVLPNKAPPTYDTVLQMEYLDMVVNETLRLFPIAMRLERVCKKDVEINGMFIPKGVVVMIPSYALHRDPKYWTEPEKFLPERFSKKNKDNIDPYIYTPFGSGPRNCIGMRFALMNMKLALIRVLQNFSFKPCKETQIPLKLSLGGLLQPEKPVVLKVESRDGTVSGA
hERG (human ether-a-go-go K+ ion channel), sequence (Q12809 whole entry): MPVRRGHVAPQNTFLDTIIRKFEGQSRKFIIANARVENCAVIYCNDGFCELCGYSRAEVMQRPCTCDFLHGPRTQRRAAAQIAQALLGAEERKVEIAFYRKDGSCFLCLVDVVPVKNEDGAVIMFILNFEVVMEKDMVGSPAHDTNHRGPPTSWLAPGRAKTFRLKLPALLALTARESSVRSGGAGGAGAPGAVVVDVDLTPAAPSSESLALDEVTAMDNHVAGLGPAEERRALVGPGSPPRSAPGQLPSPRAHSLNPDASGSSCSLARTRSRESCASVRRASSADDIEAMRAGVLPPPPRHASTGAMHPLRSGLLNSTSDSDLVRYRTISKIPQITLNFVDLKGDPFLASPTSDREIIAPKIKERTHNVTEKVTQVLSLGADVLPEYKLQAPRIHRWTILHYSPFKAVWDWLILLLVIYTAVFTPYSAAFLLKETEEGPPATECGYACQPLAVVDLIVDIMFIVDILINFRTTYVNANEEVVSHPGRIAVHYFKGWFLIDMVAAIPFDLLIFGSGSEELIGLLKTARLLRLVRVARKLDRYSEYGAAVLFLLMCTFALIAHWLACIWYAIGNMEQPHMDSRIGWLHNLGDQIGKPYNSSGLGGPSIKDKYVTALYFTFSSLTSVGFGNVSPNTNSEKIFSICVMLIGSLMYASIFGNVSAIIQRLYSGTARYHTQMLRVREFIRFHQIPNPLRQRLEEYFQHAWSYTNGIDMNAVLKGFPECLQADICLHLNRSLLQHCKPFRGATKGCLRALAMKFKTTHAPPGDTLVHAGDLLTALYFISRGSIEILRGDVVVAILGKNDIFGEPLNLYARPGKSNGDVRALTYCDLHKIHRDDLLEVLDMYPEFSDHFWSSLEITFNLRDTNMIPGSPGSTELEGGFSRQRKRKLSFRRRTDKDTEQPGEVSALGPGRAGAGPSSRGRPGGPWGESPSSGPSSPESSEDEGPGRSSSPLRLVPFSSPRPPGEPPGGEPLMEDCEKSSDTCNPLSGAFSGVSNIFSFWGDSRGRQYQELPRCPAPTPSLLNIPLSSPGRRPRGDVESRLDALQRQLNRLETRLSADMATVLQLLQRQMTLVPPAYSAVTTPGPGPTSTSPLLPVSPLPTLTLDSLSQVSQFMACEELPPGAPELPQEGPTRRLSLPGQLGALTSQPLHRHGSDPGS
T3 sequence (Q3UP24 whole entry): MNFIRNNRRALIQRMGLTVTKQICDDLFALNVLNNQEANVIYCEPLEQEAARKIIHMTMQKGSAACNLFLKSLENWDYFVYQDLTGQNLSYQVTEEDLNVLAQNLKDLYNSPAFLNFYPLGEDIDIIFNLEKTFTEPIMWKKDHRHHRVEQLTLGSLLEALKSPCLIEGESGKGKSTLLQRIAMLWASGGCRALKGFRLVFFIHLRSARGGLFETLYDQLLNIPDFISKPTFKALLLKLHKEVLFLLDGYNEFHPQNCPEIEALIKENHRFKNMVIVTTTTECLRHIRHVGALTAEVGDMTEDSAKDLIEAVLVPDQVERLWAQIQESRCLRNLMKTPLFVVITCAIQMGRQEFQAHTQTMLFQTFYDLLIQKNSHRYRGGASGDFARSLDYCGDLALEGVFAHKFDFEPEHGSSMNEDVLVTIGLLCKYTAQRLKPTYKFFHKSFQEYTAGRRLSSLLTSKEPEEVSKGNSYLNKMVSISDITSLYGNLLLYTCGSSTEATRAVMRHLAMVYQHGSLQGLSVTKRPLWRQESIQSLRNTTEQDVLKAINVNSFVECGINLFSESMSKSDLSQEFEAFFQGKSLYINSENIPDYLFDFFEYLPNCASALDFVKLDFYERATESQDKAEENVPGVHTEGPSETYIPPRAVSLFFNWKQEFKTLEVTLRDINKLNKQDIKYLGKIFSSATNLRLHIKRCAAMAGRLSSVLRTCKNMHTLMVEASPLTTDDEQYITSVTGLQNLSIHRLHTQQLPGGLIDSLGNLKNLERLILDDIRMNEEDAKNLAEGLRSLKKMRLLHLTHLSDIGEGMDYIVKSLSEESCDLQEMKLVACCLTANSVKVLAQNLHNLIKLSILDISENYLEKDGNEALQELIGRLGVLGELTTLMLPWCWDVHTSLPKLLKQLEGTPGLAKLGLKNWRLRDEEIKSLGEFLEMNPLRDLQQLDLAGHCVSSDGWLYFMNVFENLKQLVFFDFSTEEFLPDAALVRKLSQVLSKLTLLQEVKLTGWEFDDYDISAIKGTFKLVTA

CC(C)(O)c1coc(S(=O)(=O)NC(=O)Nc2c3c(cc4c2CCC4)CCC3)c1 [MCC950, reference compound]
Human % PS (Human plasma stability): 96%
IC50 (CYP1A2): 20 µM
IC50 (CYP2C9): 43 µM
IC50 (CYP3A4): > 50 µM
half-life [1]: > 2.42 h
Tolerability in single-dose pharmacokinetic studies [2]: well tolerated
bioavailability ([2]; male, C57BL/6J, mouse, mice): 71%
Oral half-life ([2]; mice): 2.4 h
half-life [3]: > 2.42 h
Mouse % PS (Mouse plasma stability): 99%
inhibition at 30 µM [4]: 21 ± 4.3%
fraction unbound [5]: 0.005
fraction unbound [6, 10]: 0.006
IC50 (CYP2D6): > 50 µM

CC(C)n1ccc(S(=O)(=O)NC(=O)Nc2c3c(cc4c2CCC4)CCC3)n1 [MCC7840]
Inhibitory activity at AIM2 inflammasome (AIM2 inflammasome): not active
Human % PS (Human plasma stability): 100%
IC50 (CYP1A2): 19 µM
IC50 (CYP2C9): 46 µM
IC50 (CYP3A4): > 50 µM
Inhibitory activity at NLRC4 inflammasome (NLRC4 inflammasome): not active
Inhibition or activation activity at any of 95 off-targets [7]: ≤ 35%
half-life [1]: > 2.42 h
Tolerability in single-dose pharmacokinetic studies [2]: well tolerated
bioavailability ([2]; male, C57BL/6J, mouse, mice): 68%
Kp at 2 h ([2]; male, C57BL/6J, mouse, mice, oral administration 20 mg/kg, total brain concentration, read-out: Brain-to-plasma ratio): ~0.035
Oral half-life ([2]; mice): 5.0 h
half-life [3]: > 2.42 h
ED50 ([8]; read-out: ED50 for dopamine loss (striatal dopamine content)): ~2.2 mg/kg
ED50 ([8]; read-out: ED50 for motor behaviour (amphetamine-induced ipsilateral rotations)): ~0.9 mg/kg
Amphetamine-induced rotations ([8]; all doses (1, 3, 10 mg/kg p.o. daily), Day 21): significantly reduced
Striatal dopamine and its metabolites DOPAC and HVA ([8]; all treatment groups (1, 3, 10 mg/kg p.o. daily), Day 28): significant preservation
Safety, tolerability and pharmacokinetics in Phase I (healthy subjects): excellent safety, tolerability and pharmacokinetic profile
Mouse % PS (Mouse plasma stability): 89%
inhibition at 30 µM [4]: 4.5 ± 3.1%
Rotarod motor deficit (PFF-Syn mouse model; 4 months post-injection, preventative (pre-PFF) group, 0.3 mg/ml drinking water): significantly attenuated
Balance beam crossing latency (PFF-Syn mouse model; 4 months, pre-treated mice): significantly reduced
Balance beam performance (PFF-Syn mouse model; [11]): improved balance beam performance
Rotarod progressive motor decline (PFF-Syn mouse model; [11]): significantly protected
Striatal dopamine loss and reduced metabolite levels (PFF-Syn mouse model; both dosing regimens, after PET imaging): significantly protected
18F-DPA-714 PET signal (PFF-Syn mouse model; both preventative and therapeutic groups, PET/MRI at 12 months (11 months in methods)): significantly reduced
PFF-Syn-induced plasma IL-1β increase (PFF-Syn mouse model; preventative group): fully suppressed
Reduction of PFF-Syn-induced plasma IL-1β (PFF-Syn mouse model; therapeutic group (from 4 months post-PFF)): ~70%
fraction unbound [5]: 0.003
fraction unbound [6, 10]: 0.005
fraction unbound ([6]; Plasma protein binding, stated in text with mouse pharmacokinetics): < 0.01
Gadolinium T1 relaxation time decrease (blood-brain barrier leakage) [9]: absent
Loss of 18F-FBCTT signal (DAT) ([9]; Day 26): significant, but not complete protection
6-OHDA-induced increase in plasma IL-1β ([9]; Day 28): effectively suppressed
Reduced ipsilateral 18F-FDOPA signal (dopamine uptake) ([9]; Day 28): significantly protected
IC50 (CYP2D6): > 50 µM
